Results taken from patent publication US8410302B2, “Methoxyimino compounds and fungicide composition comprising same” (Kyung Nong Corporation, priority 2007, dated 2013).

Assays:
[1] = tested on: Erysiphae graminis; assay: Fungicidal activity against barley powdery mildew (BPM) disease, control value; type: in vivo; settings: barley powdery mildew
[2] = tested on: Pyricularia oryzae Carvara KA301; assay: whole plant or invertebrate; type: in vivo; settings: rice blast
[3] = tested on: Botrytis cinerae; assay: Fungicidal activity against cucumber gray mold rot (CGM) disease, control value; type: in vivo; settings: 100 ppm, cucumber gray mold rot
[4] = tested on: Rhizoctonia solani AG-1; assay: Fungicidal activity against rice sheath blight (RSB) disease, control value; settings: 100 ppm, rice sheath blight
[5] = tested on: Puccinia recondita; assay: Fungicidal activity against wheat leaf rust (WLR) disease, control value; type: in vivo; settings: wheat leaf rust
[6] = tested on: Phytophthora infestans; assay: whole plant or invertebrate; type: in vivo; settings: tomato late blight

SMILES	BPM control value (C.V.) ([1]; 2 ppm) [%]	BPM control value (C.V.) ([1]; 10 ppm) [%]	BPM control value (C.V.) ([1]; 50 ppm) [%]	BPM control value (C.V.) ([1]; 100 ppm) [%]	RCB control value (C.V.) ([2]; 2 ppm) [%]	RCB control value (C.V.) ([2]; 10 ppm) [%]	RCB control value (C.V.) ([2]; 50 ppm) [%]	RCB control value (C.V.) ([2]; 100 ppm) [%]	CGM control value (C.V.) [3] [%]	RSB control value (C.V.) [4] [%]	WLR control value (C.V.) ([5]; 2 ppm) [%]	WLR control value (C.V.) ([5]; 10 ppm) [%]	WLR control value (C.V.) ([5]; 50 ppm) [%]	WLR control value (C.V.) ([5]; 100 ppm) [%]	TLB control value (C.V.) ([6]; 2 ppm) [%]	TLB control value (C.V.) ([6]; 10 ppm) [%]	TLB control value (C.V.) ([6]; 50 ppm) [%]	TLB control value (C.V.) ([6]; 100 ppm) [%]
CO/N=C(/C(=O)OC)c1ccccc1CON=C(C)c1ccc(C=C(F)F)cc1 [Example 29, methyl-(E)-2-[[[[[2-[4-(2,2-difluorovinyl)phenyl](1-methyl)methylidene]amino]oxy]methyl]phenyl]-2-methoxyiminoacetate]	15	60	93	100	100	100	100	100	24	30	100	100	100	100	100	100	100	100
CNC(=O)/C(=N/OC)c1ccccc1CON=C(C)c1ccc(C=C(F)F)cc1 [Example 30, (E)-2-[[[[[2-[4-(2,2-difluorovinyl)phenyl](1-methyl)methylidene]amino]oxy]methyl]phenyl]-2-methoxyimino-N-methylacetamide]			60	98	100	100	100	100	60	45	90	100	100	100	100	100	100	100
CO/N=C(/C(=O)OC)c1ccccc1CON=C(C)c1cccc(C=C(F)Cl)c1 [Example 31, methyl-(E)-2-[[[[[2-[3-(2-chloro-2-fluorovinyl)phenyl](1-methyl)methylidene]amino]oxy]methyl]phenyl]-2-methoxyiminoacetate]			60	90			70	95	43	30		40	90	100				60
CNC(=O)/C(=N/OC)c1ccccc1CON=C(C)c1cccc(C=C(F)Cl)c1 [Example 32, (E)-2-[[[[[2-[3-(2-chloro-2-fluorovinyl)phenyl](1-methyl)methylidene]amino]oxy]methyl]phenyl]-2-methoxyimino-N-methylacetamide]				80			90	97	34	65				82			55	93
CO/N=C(/C(=O)OC)c1ccccc1CON=C(C)c1ccc(C=C(F)Cl)cc1 [Example 33, methyl-(E)-2-[[[[[2-[4-(2-chloro-2-fluorovinyl)phenyl](1-methyl)methylidene]amino]oxy]methyl]phenyl]-2-methoxyiminoacetate]				80			70	95	15	67			40	90				60
